According to ChEMBL document CHEMBL1250454, “Oral oxytocin antagonists” (J Med Chem, 2010):
≈ marks a conversion by molar mass, not a printed value.

Columns and labels:
Oxytocin receptor [1] = molecular target: T1, Oxytocin receptor (Homo sapiens, UniProt P30559); test: Displacement of [3H]-oxytocin from human oxytocin receptor expressed in CHO cells; type: cell-based
T1 sequence (P30559 whole entry): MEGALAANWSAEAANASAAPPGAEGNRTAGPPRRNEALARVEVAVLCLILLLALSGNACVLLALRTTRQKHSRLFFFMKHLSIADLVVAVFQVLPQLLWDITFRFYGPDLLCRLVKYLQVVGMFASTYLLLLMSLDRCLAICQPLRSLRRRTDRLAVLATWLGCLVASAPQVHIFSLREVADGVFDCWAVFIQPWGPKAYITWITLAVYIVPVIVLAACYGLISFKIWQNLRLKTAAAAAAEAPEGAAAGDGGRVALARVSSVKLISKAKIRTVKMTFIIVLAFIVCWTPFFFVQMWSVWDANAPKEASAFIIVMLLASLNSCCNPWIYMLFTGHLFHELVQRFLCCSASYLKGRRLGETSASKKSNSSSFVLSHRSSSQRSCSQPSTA

Vasopressin V1a receptor [2] = molecular target: T2, Vasopressin V1a receptor (Homo sapiens, UniProt P37288); test: Displacement of [3H]vasopressin from human vasopressin V1a receptor expressed in CHO cells at 10 uM; type: cell-based
Rattus norvegicus [3] = test: Inhibition of oxytocin-induced uterine contraction in po dosed rat; type: functional
Vasopressin V1a receptor [4] = molecular target: T2, Vasopressin V1a receptor; test: Displacement of [3H]vasopressin from human vasopressin V1a receptor expressed in CHO cells; type: cell-based
Target sequence in this assay (P37288 whole entry): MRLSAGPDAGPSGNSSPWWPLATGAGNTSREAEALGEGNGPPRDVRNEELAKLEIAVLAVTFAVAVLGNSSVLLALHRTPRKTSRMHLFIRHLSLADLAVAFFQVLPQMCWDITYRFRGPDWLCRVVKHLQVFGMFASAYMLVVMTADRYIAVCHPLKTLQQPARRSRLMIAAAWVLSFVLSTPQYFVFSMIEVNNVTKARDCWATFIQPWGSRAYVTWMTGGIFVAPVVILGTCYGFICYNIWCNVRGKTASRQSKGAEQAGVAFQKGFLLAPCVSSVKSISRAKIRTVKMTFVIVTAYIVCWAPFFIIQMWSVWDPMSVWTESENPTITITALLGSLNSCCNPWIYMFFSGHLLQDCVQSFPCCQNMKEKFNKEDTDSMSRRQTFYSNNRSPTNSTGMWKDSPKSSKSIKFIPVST

Rattus norvegicus [5] = test: Inhibition of oxytocin-induced uterine contraction in non-pregnant rat at 30 mg/kg, po; type: functional
Rattus norvegicus [6] = test: Inhibition of oxytocin-induced uterine contraction in pregnant rat at 60 mg/kg, po; type: functional
[7] = Oral bioavailability in rat; type: ADME, organism-based; settings: in vivo
Oxytocin receptor [8] = molecular target: T3, Oxytocin receptor (Rattus norvegicus, UniProt P70536); test: Displacement of [3H]-oxytocin from rat oxytocin receptor expressed in CHO cells; type: cell-based
T3 sequence (P70536 whole entry): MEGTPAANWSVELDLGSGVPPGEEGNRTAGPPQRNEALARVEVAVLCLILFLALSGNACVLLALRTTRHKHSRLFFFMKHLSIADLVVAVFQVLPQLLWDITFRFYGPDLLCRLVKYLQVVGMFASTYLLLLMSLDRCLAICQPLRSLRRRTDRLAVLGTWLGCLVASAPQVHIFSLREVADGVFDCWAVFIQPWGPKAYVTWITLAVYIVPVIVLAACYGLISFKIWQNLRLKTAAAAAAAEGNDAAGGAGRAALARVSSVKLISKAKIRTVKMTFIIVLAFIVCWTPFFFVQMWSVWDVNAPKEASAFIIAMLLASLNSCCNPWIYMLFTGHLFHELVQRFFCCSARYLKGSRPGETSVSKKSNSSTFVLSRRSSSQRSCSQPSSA

[9] = Protein binding in human serum; type: ADME, cell-free; settings: read-out: PB (converted)
Vasopressin V1b receptor = molecular target: T4, Vasopressin V1b receptor (Homo sapiens, UniProt P47901); test: Displacement of [3H]vasopressin from human vasopressin V1b receptor expressed in CHO cells; type: cell-based
T4 sequence (P47901 whole entry): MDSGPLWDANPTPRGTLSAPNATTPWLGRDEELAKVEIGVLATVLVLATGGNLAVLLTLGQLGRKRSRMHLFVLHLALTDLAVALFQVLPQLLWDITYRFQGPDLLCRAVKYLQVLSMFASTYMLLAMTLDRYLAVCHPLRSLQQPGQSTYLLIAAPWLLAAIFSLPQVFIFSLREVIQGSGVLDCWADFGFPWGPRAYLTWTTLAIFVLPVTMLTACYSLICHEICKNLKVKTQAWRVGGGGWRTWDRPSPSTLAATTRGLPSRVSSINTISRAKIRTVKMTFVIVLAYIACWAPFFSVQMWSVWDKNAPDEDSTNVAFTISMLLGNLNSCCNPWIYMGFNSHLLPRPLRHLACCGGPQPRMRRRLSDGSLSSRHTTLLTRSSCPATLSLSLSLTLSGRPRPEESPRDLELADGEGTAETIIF

Vasopressin V2 receptor [10] = molecular target: T5, Vasopressin V2 receptor (Homo sapiens, UniProt P30518); test: Displacement of [3H]vasopressin from human vasopressin V2 receptor expressed in CHO cells; type: cell-based
Oxytocin receptor [11] = molecular target: T3, Oxytocin receptor; test: Antagonist activity at oxytocin receptor in rat uterine strips assessed as inhibition of oxytocin-induced contraction; type: functional; settings: read-out: pA2 (converted)
Rattus norvegicus [12] = test: Inhibition of oxytocin-induced uterine contraction in iv dosed rat; type: functional; settings: Rattus norvegicus, iv
Oxytocin receptor [13] = molecular target: T1, Oxytocin receptor; test: Displacement of [3H]-oxytocin from oxytocin receptor in human uterus tissue; type: tissue-based
[14] = Half life in pregnant rat; type: ADME, organism-based; settings: female, in vivo
Homo sapiens [15] = species on record: Homo sapiens; test: Selectivity ratio of Ki for human oxytocin receptor Ki for human vasopressin V2 receptor
[16] = Oral bioavailability in pregnant rat; type: ADME, organism-based; settings: female, in vivo
Homo sapiens [17] = species on record: Homo sapiens; test: Selectivity ratio of Ki for human oxytocin receptor Ki for human vasopressin V1a receptor
Oxytocin receptor [18] = molecular target: T1, Oxytocin receptor; test: Displacement of [3H]-oxytocin from human oxytocin receptor expressed in HEK293-EBNA cells; type: cell-based
Vasopressin V1a receptor [19] = molecular target: T2, Vasopressin V1a receptor; test: Displacement of [3H]vasopressin from human vasopressin V1a receptor expressed in CHO cells at 10 uM
Target sequence in this assay (P37288 whole entry, looked up): as the sequence (P37288 whole entry) above

[20] = Solubility of the compound at pH 7.4; type: physicochemical; settings: buffer
Homo sapiens [21] = test: Toxicity in human assessed as tolerated dosed; type: organism-based; settings: in vivo
[22] = Clearance in dog; type: ADME, organism-based, Canis lupus familiaris; settings: in vivo
[23] = Oral bioavailability in human; type: ADME, organism-based; settings: in vivo
[24] = Clearance in human; type: ADME, organism-based; settings: in vivo
[25] = Half life in human; type: ADME, organism-based; settings: in vivo
[26] = Clearance in rat; type: ADME, organism-based; settings: in vivo
Vasopressin V2 receptor [27] = molecular target: T5, Vasopressin V2 receptor; test: Displacement of [3H]vasopressin from vasopressin V2 receptor in human kidney tissue
[28] = Oral bioavailability in chimpanzee; type: ADME, organism-based, Pan troglodytes; settings: in vivo
Vasopressin V2 receptor [29] = molecular target: T6, Vasopressin V2 receptor (Rattus norvegicus, UniProt Q00788); test: Displacement of [3H]vasopressin from vasopressin V2 receptor in rat kidney tissue
Vasopressin V1a receptor [30] = molecular target: T7, Vasopressin V1a receptor (Rattus norvegicus, UniProt P30560); test: Displacement of [3H]vasopressin from vasopressin V1a receptor in rat liver tissue
Vasopressin V2 receptor [31] = molecular target: T6, Vasopressin V2 receptor; test: Displacement of [3H]vasopressin from rat vasopressin V2 receptor in kidney tissue
Vasopressin V1a receptor [32] = molecular target: T7, Vasopressin V1a receptor; test: Displacement of [3H]vasopressin from rat vasopressin V1a receptor in liver tissue

T5 sequence (P30518 whole entry): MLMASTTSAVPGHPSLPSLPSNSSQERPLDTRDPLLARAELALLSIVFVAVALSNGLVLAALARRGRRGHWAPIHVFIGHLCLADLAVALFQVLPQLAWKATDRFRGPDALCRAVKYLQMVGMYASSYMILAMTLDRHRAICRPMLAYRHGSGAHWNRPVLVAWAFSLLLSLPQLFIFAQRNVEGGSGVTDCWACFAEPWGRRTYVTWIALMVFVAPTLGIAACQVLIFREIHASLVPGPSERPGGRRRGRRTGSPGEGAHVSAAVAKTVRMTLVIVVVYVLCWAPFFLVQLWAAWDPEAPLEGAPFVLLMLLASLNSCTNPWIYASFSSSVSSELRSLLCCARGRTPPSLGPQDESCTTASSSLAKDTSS
T6 sequence (Q00788 whole entry): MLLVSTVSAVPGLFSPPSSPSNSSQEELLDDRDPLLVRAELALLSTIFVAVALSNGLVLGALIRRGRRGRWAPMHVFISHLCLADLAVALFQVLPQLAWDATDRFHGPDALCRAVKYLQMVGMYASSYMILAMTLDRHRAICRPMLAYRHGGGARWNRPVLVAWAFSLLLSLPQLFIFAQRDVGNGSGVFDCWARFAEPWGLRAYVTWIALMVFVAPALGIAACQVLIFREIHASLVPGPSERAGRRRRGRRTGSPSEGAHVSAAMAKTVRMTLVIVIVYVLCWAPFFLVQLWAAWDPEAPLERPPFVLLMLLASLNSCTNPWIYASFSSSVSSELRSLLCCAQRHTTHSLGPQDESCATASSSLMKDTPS
T7 sequence (P30560 whole entry): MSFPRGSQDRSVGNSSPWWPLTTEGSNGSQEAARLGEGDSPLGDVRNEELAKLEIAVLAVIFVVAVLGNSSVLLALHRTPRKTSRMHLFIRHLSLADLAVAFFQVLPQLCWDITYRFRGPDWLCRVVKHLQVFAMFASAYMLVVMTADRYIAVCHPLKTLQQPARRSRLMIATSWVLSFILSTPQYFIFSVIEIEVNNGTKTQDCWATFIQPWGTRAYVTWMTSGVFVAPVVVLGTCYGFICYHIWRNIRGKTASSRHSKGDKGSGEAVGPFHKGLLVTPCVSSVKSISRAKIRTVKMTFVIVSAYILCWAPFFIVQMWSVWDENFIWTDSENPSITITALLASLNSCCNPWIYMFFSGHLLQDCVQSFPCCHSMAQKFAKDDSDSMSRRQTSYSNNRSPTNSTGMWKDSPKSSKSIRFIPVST

CO/N=C1\C[C@@H](C(=O)NCC(O)c2ccccc2)N(C(=O)c2ccc(-c3ccccc3)cc2)C1 (some centres undefined)
IC50 (Oxytocin receptor [1]): 260 nM | inhibition (Vasopressin V1a receptor [2]): 68%

CO/N=C1/C[C@@H](CO)N(C(=O)c2ccc(-c3ccccc3C)cc2)C1 [NOLASIBAN]
ED50 (Rattus norvegicus [3]): 30 mg/kg | Ki (Vasopressin V1a receptor [4]): 330 nM | inhibition in vivo at 30 mg/kg (Rattus norvegicus [5]): 51% | inhibition in vivo at 60 mg/kg (Rattus norvegicus [6]): 40% | bioavailability [7]: 55% | Ki (Oxytocin receptor [8]): 210 nM | fraction unbound [9]: 0.29

CCOCc1nnc(-c2ccc(OCC)c(C)c2)n1-c1ccc(OC)nc1
Ki (Vasopressin V1b receptor): > 10000 nM | Ki (Vasopressin V1a receptor [2]): 549 nM | Ki (Vasopressin V2 receptor [10]): > 10000 nM

CO/N=C1/C[C@@H](C(=O)NC[C@@H](O)c2ccccc2)N(C(=O)c2ccc(-c3ccccc3C)cc2)C1
Kb (Oxytocin receptor [11]): 15.8 nM | IC50 (Oxytocin receptor [1]): 28 nM | ED50 (Rattus norvegicus [3]): 89 mg/kg | ED50 (Rattus norvegicus [12]): 3.5 mg/kg | Ki (Oxytocin receptor [13]): 28 nM | bioavailability [7]: 49% | half-life [14]: 2.8 h | Ratio Ki (Homo sapiens [15]): 350 | bioavailability [16]: 49% | Ki (Vasopressin V2 receptor [10]): > 10000 nM | Ratio Ki (Homo sapiens [17]): 6

CO/N=C1/C[C@H](c2nc(C)no2)N(C(=O)c2ccc(-c3ccccc3C)cc2)C1
Ki (Oxytocin receptor [18]): 50 nM | Ki (Vasopressin V1a receptor [2]): 60 nM

O=C(CN(c1ccccc1)S(=O)(=O)c1ccccc1)N/N=C1\C(=O)Nc2ccccc21
inhibition (Vasopressin V1a receptor [19]): < 50%

COCc1nnc(N2CC(Oc3ccc(F)cc3Cl)C2)n1-c1ccc(OC)nc1
solubility [20]: 59 µg/mL (≈ 141 µM) | Activity (Homo sapiens [21]): 0.3 mg | clearance [22]: 8 mL/min/kg | bioavailability [23]: 80% | clearance [24]: > 8 mL/min/kg | Ki (Vasopressin V1b receptor): > 10000 nM | half-life [25]: 12 h | clearance [26]: 36 mL/min/kg | Ratio Ki (Homo sapiens [15]): 1050 | Ratio Ki (Homo sapiens [17]): 118

O=C(Cn1cc(C(F)(F)F)ccc1=O)NCc1cc2cc(C(=O)N3CCC(N4C(=O)OCc5ccccc54)CC3)ccc2o1
Ki (Vasopressin V2 receptor [27]): > 3000 nM | Ratio Ki (Homo sapiens [15]): > 1500 | bioavailability [28]: 51% | Ratio Ki (Homo sapiens [17]): 630

Cc1ccc(S(=O)(=O)N2CCC3(C=Cc4ccccc43)CC2)cc1
Ki (Vasopressin V2 receptor [29]): > 40000 nM | Ki (Oxytocin receptor [13]): 1000 nM | Ki (Vasopressin V1a receptor [30]): 9800 nM

CCN(Cc1cccnc1)C(=O)c1ccc(Cl)c([C@]2(C)C(=O)N(Cc3ccc(OC)cc3OC)c3ccc(Cl)cc32)c1
Kb (Oxytocin receptor [11]): 3.39 nM | IC50 (Oxytocin receptor [1]): 0.5 nM | Ki (Vasopressin V1a receptor [4]): 143 nM | Ki (Vasopressin V2 receptor [31]): > 1000 nM | Ki (Oxytocin receptor [8]): 1.6 nM | Ki (Vasopressin V1a receptor [32]): 99 nM | Ki (Vasopressin V2 receptor [10]): > 1000 nM

COc1ccc(N(Cc2ccc(-c3ccccc3C)cn2)S(=O)(=O)c2cn(C)c(C)n2)cn1
Ki (Oxytocin receptor [13]): 9.1 nM | Ratio Ki (Homo sapiens [15]): 15700 | Ratio Ki (Homo sapiens [17]): 80

CC[C@H](C)[C@@H]1C(=O)N[C@H](C2Cc3ccccc3C2)C(=O)N1[C@@H](C(=O)N1CCOCC1)c1coc(C)n1 [RETOSIBAN]
bioavailability [7]: 100%
